Test [1] deals with T1, glycosyltransferase in crude enzyme liquid from pink carnation petals (Dianthus caryophyllus, UniProt E3W9M2).
T1 construct: Thus, a crude enzyme liquid was obtained; from tissue; host or cells: pink petals of carnation, variety Beam Cherry (ammonium sulfate precipitate, desalted)
T1 sequence (E3W9M2 31-502): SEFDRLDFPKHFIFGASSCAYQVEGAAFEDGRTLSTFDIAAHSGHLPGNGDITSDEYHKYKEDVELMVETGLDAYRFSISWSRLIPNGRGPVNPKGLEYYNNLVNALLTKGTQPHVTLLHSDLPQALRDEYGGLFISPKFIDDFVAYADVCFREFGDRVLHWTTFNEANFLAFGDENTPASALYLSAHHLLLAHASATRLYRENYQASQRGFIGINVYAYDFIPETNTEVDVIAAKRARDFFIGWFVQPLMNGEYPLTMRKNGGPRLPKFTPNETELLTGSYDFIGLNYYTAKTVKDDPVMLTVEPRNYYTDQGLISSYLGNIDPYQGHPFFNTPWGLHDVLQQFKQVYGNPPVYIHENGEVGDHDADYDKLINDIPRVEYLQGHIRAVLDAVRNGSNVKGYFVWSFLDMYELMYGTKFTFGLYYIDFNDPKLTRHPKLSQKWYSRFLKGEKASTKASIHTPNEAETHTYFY
The experiment in a line: Detection of glycosyl transfer reaction with carnation petal crude enzyme liquid (HPLC). In kind it is biochemical. As to conditions: pH 5.6, 30° C. How it is done:
Pink petals of a carnation (variety: “Beam Cherry”) were ground into a powder in liquid nitrogen using a mortar and a pestle. The obtained powder was added in a stepwise manner to a 50 mM potassium phosphate buffer (pH 7.2) and dissolved therein via stirring to prevent freezing. Then, an insoluble fraction was removed by centrifugation. A saturate ammonium sulfate solution was added to the obtained supernatant so as to result in a concentration of 80%. The mixture was left on ice for 5 minutes. The precipitated protein was collected by centrifugation. A 10 mM potassium phosphate buffer was added thereto for complete dissolution. The obtained solution was applied to a Sephadex G-25 gelfiltration support (GE Healthcare) for desalting. Thus, a crude enzyme liquid was obtained. […]
Glycosyltransferase activity was examined using a crude enzyme extracted from pink petals of a carnation (variety: “Beam Cherry”) or petals of a delphinium (variety: “marine blue”) in the manner described in Example 1. […] Then, the supernatant was analyzed by HPLC. […]

The target of test [2] is T2, carnation-derived glycosyltransferase (SEQ ID NO: 1), recombinant crude enzyme liquid (Dianthus caryophyllus, UniProt E3W9M2).
T2 construct: the enzyme comprising 502 amino acid residues was translated, followed by amino acid removal via processing; added initiator methionine (one Met placed before the processed N-terminus SEFDRL...) (N); made in house; host or cells: Escherichia coli JM109 (crude lysate supernatant)
T2 sequence (E3W9M2 31-502): T1 sequence (E3W9M2 31-502)
Briefly: Glycosyl transfer reaction with carnation-derived glycosyltransferase gene expressed in Escherichia coli. Type of test: biochemical. As to conditions: E. coli crude enzyme liquid, cyanidin-3-O-β-glucoside, pH 5.6, 30° C., 3 hours. As to the method:
The PCR product was ligated to a pTrcHis2-TOPO vector (Invitrogen) using a pTrcHis2-TOPO TA expression Kit (Invitrogen), followed by transformation of the Escherichia coli JM109 strain. DNA was extracted from the transformed Escherichia coli and the DNA nucleotide sequence was analyzed in the above manner. Accordingly, the direction of cDNA introduction and the nonoccurrence of a PCR-induced nucleotide substitution were confirmed.
The transformed Escherichia coli was seeded on an LB medium containing […] ampicillin (5 ml), followed by shake culture at 30° C. for 4 hours. Then, IPTG was added thereto to result in 1 mM, followed by shake culture at 16° C. for 2 hours. The cultured Escherichia coli was harvested via centrifugation at 1,800×g. The medium was removed therefrom. A 0.1 M citric acid buffer (pH 5.6) (150 μl) was added thereto, followed by sufficient mixing. The resultant was repeatedly subjected to ultrasonication on ice 3 times for 10 seconds (output: 4; duty: 70) using a ultrasonic disintegrator (UD-201, TOMY SEIKO Co., Ltd., Tokyo, Japan), followed by centrifugation at 20,000×g. The supernatant was transferred to a new centrifuge tube and designated as a crude enzyme liquid. […]

Regarding `O=C(OC1OC(CO)C(O)C(O)C1O)c1ccc(O)cc1` (stereo not drawn) [1-O-β-p-hydroxybenzoyl glucose], the “Recognition as sugar donor by carnation glycosylation enzyme” value in test [1] (carnation crude enzyme, cyanidin 3-O-β-glucoside 200 μM, sugar donor 1 mM, 15 minutes) was “recognize 1-O-β-p-hydroxybenzoyl glucose as a sugar donor”.

`COc1cc(C(=O)OC2OC(CO)C(O)C(O)C2O)ccc1O` (stereo not drawn): the “Function as sugar donor (generation of cyanidin 3,5-O-β-diglucoside from cyanidin 3-glucoside)” value in test [1] (carnation crude enzyme liquid, 40 minutes) is recorded as “functions as a sugar donor”. Moreover, the “Sugar donor function with recombinant carnation-derived glycosyltransferase (reaction product by HPLC)” value in test [2] is on record as “Generation of cyanidin 3,5-O-β-diglucoside was confirmed”.

(Values after patent publication US8722868B2, “Glycosyltransferase, novel glycosyltransferase gene, and novel sugar donor compound” (National University Corporation Tokyo University of …, priority 2009, dated 2014).)
